Laboratory results published in patent publication US6852673B2, “Herbicidal pyridine compounds” (BASF Aktiengesellschaft, priority 1998, dated 2005).

Experiments:
Format in all cases: in vivo
[1] = tested on: Matricaria inodora (MATIN); assay: Pre-emergence herbicidal evaluation, mayweed
How it was run: (§1)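 Pre-emergence; seed/potting-soil mix sown on ~1 inch soil; spray aqueous acetone solution, ~0.0125–0.4 kg/ha equivalent; greenhouse, watered; visual rating at 2–4 wk.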

Setaria viridis (SETVI) [2] = assay: Pre-emergence herbicidal evaluation, green foxtail
How it was run: as §1

[3] = tested on: Ipomoea hederacea (IPOHE); assay: Post-emergence herbicidal evaluation, morning glory; details: rated 2 to 4 weeks after treatment
How it was run: (§2)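 Rating scale 0 (same growth as untreated control) to 9 (death), scored 2–4 weeks after treatment. Sprays were water-diluted acetone solutions applied to emerged plants at about 0.03–0.4 kg/ha test compound per pot, followed by standard greenhouse care.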

[4] = tested on: Ipomoea hederacea (IPOHE); assay: Pre-emergence herbicidal evaluation, morning glory
How it was run: as §1

[5] = tested on: Alopecurus myosuroides (ALOMY); assay: Pre-emergence herbicidal evaluation, black grass
How it was run: as §1

[6] = tested on: Alopecurus myosuroides (ALOMY); assay: Post-emergence herbicidal evaluation, black grass; details: rated 2 to 4 weeks after treatment
How it was run: as §2

Galium aparine (GALAP) [7] = assay: Pre-emergence herbicidal evaluation, cleaver
How it was run: as §1

Glycine max (GLXMA) [8] = assay: Pre-emergence herbicidal evaluation, soyabeans
How it was run: as §1

[9] = tested on: Triticum aestivum (TRZAW); assay: Pre-emergence herbicidal evaluation, winter wheat
How it was run: as §1

Oryza sativum (ORYSA) [10] = assay: Post-emergence herbicidal evaluation, rice; details: rated 2 to 4 weeks after treatment
How it was run: as §2

Lamium purpureum (LAMPU) = assay: Post-emergence herbicidal evaluation, purple deadnettle; details: rated 2 to 4 weeks after treatment
How it was run: as §2

[11] = tested on: Matricaria inodora (MATIN); assay: Post-emergence herbicidal evaluation, mayweed; details: rated 2 to 4 weeks after treatment
How it was run: as §2

[12] = tested on: Triticum aestivum (TRZAW); assay: Post-emergence herbicidal evaluation, winter wheat; details: rated 2 to 4 weeks after treatment
How it was run: as §2

Solanum nigrum (SOLNI) = assay: Pre-emergence herbicidal evaluation, black nightshade
How it was run: as §1

[13] = tested on: Ambrosia artemiisifolia (AMBEL); assay: Post-emergence herbicidal evaluation, ragweed; details: rated 2 to 4 weeks after treatment
How it was run: as §2

Zea mays (ZEAMX) [14] = assay: Pre-emergence herbicidal evaluation, maize
How it was run: as §1

Oryza sativum (ORYSA) [15] = assay: Pre-emergence herbicidal evaluation, rice
How it was run: as §1

[16] = tested on: Digitaria sanguinalis (DIGSA); assay: Post-emergence herbicidal evaluation, large crabgrass; details: rated 2 to 4 weeks after treatment
How it was run: as §2

Stellaria media (STEME) [17] = assay: Post-emergence herbicidal evaluation, chickweed; details: rated 2 to 4 weeks after treatment
How it was run: as §2

Glycine max (GLXMA) [18] = assay: Post-emergence herbicidal evaluation, soyabeans; details: rated 2 to 4 weeks after treatment
How it was run: as §2

[19] = tested on: Abutilon theophrasti (ABUTH); assay: Post-emergence herbicidal evaluation, velvetleaf; details: rated 2 to 4 weeks after treatment
How it was run: as §2

Zea mays (ZEAMX) [20] = assay: Post-emergence herbicidal evaluation, maize; details: rated 2 to 4 weeks after treatment
How it was run: as §2

[21] = tested on: Abutilon theophrasti (ABUTH); assay: Pre-emergence herbicidal evaluation, velvetleaf
How it was run: as §1

Stellaria media (STEME) [22] = assay: Pre-emergence herbicidal evaluation, chickweed
How it was run: as §1

Setaria viridis (SETVI) [23] = assay: Post-emergence herbicidal evaluation, green foxtail; details: for SETVI rating: rated 2 to 4 weeks after treatment
How it was run: as §2

Galium aparine (GALAP) [24] = assay: Post-emergence herbicidal evaluation, cleaver; details: rated 2 to 4 weeks after treatment
How it was run: as §2

Cc1cc(OCC(F)(F)C(F)(F)C(F)(F)C(F)F)nc(Oc2cc(C(F)(F)F)nn2C)c1 [Example 8]
good selectivity: selectivity in maize (Zea mays (ZEAMX) [14])
2 (2 - Slight effect): IPOHE rating ([4]; dose 0.013 kg/ha) | IPOHE rating ([4]; dose 0.025 kg/ha) | ALOMY rating ([6]; dose 0.03 kg/ha) | GLXMA rating (Glycine max (GLXMA) [8]; dose 0.1 kg/ha) | ORYSA rating (Oryza sativum (ORYSA) [10]; dose 0.1 kg/ha) | ORYSA rating (Oryza sativum (ORYSA) [10]; dose 0.4 kg/ha) | TRZAW rating ([12]; dose 0.03 kg/ha) | TRZAW rating ([12]; dose 0.1 kg/ha) | ZEAMX rating (Zea mays (ZEAMX) [14]; dose 0.4 kg/ha)
6 (6 - Herbicidal effect): GALAP rating (Galium aparine (GALAP) [7]; dose 0.1 kg/ha) | SETVI rating (Setaria viridis (SETVI) [23]; dose 0.1 kg/ha)
5 (5 - Definite injury): AMBEL rating ([13]; dose 0.03 kg/ha) | STEME rating (Stellaria media (STEME) [17]; dose 0.1 kg/ha) | GLXMA rating (Glycine max (GLXMA) [18]; dose 0.03 kg/ha) | ABUTH rating ([19]; dose 0.1 kg/ha) | GALAP rating (Galium aparine (GALAP) [24]; dose 0.03 kg/ha)
4 (4 - Injury): GLXMA rating (Glycine max (GLXMA) [8]; dose 0.4 kg/ha) | STEME rating (Stellaria media (STEME) [22]; dose 0.025 kg/ha)
8 (8 - Approaching complete kill): MATIN rating ([1]; dose 0.013 kg/ha) | MATIN rating ([1]; dose 0.025 kg/ha) | ALOMY rating ([5]; dose 0.4 kg/ha) | ALOMY rating ([6]; dose 0.4 kg/ha) | GALAP rating (Galium aparine (GALAP) [7]; dose 0.4 kg/ha) | LAMPU rating (Lamium purpureum (LAMPU); dose 0.03 kg/ha) | LAMPU rating (Lamium purpureum (LAMPU); dose 0.1 kg/ha) | SOLNI rating (Solanum nigrum (SOLNI); dose 0.1 kg/ha) | SOLNI rating (Solanum nigrum (SOLNI); dose 0.4 kg/ha) | AMBEL rating ([13]; dose 0.1 kg/ha) | AMBEL rating ([13]; dose 0.4 kg/ha) | DIGSA rating ([16]; dose 0.03 kg/ha) | STEME rating (Stellaria media (STEME) [17]; dose 0.4 kg/ha) | GLXMA rating (Glycine max (GLXMA) [18]; dose 0.4 kg/ha) | SETVI rating (Setaria viridis (SETVI) [23]; dose 0.4 kg/ha) | GALAP rating (Galium aparine (GALAP) [24]; dose 0.4 kg/ha)
9 (9 - Complete kill): MATIN rating ([1]; dose 0.1 kg/ha) | MATIN rating ([1]; dose 0.4 kg/ha) | SETVI rating (Setaria viridis (SETVI) [2]; dose 0.1 kg/ha) | SETVI rating (Setaria viridis (SETVI) [2]; dose 0.4 kg/ha) | IPOHE rating ([3]; dose 0.1 kg/ha) | IPOHE rating ([3]; dose 0.4 kg/ha) | IPOHE rating ([4]; dose 0.1 kg/ha) | IPOHE rating ([4]; dose 0.4 kg/ha) | LAMPU rating (Lamium purpureum (LAMPU); dose 0.4 kg/ha) | MATIN rating ([11]; dose 0.03 kg/ha) | MATIN rating ([11]; dose 0.1 kg/ha) | MATIN rating ([11]; dose 0.4 kg/ha) | DIGSA rating ([16]; dose 0.1 kg/ha) | DIGSA rating ([16]; dose 0.4 kg/ha) | ABUTH rating ([21]; dose 0.4 kg/ha) | STEME rating (Stellaria media (STEME) [22]; dose 0.1 kg/ha) | STEME rating (Stellaria media (STEME) [22]; dose 0.4 kg/ha)
effective: grass control such as Setaria virides (Setaria viridis (SETVI) [23]; in barley at crop selective doses)
3 (3 - Moderate effect): SETVI rating (Setaria viridis (SETVI) [2]; dose 0.025 kg/ha) | TRZAW rating ([9]; dose 0.4 kg/ha) | TRZAW rating ([12]; dose 0.4 kg/ha) | SOLNI rating (Solanum nigrum (SOLNI); dose 0.025 kg/ha) | STEME rating (Stellaria media (STEME) [17]; dose 0.03 kg/ha) | ZEAMX rating (Zea mays (ZEAMX) [20]; dose 0.4 kg/ha) | SETVI rating (Setaria viridis (SETVI) [23]; dose 0.03 kg/ha)
1 (1 - Trace effect): SETVI rating (Setaria viridis (SETVI) [2]; dose 0.013 kg/ha) | ALOMY rating ([5]; dose 0.013 kg/ha) | ALOMY rating ([5]; dose 0.025 kg/ha) | GALAP rating (Galium aparine (GALAP) [7]; dose 0.013 kg/ha) | GALAP rating (Galium aparine (GALAP) [7]; dose 0.025 kg/ha) | GLXMA rating (Glycine max (GLXMA) [8]; dose 0.025 kg/ha) | TRZAW rating ([9]; dose 0.1 kg/ha) | ORYSA rating (Oryza sativum (ORYSA) [10]; dose 0.03 kg/ha) | SOLNI rating (Solanum nigrum (SOLNI); dose 0.013 kg/ha) | ZEAMX rating (Zea mays (ZEAMX) [14]; dose 0.013 kg/ha) | ZEAMX rating (Zea mays (ZEAMX) [14]; dose 0.025 kg/ha) | ZEAMX rating (Zea mays (ZEAMX) [14]; dose 0.1 kg/ha) | ORYSA rating (Oryza sativum (ORYSA) [15]; dose 0.1 kg/ha) | ORYSA rating (Oryza sativum (ORYSA) [15]; dose 0.4 kg/ha) | ABUTH rating ([19]; dose 0.03 kg/ha) | ZEAMX rating (Zea mays (ZEAMX) [20]; dose 0.03 kg/ha) | ZEAMX rating (Zea mays (ZEAMX) [20]; dose 0.1 kg/ha) | ABUTH rating ([21]; dose 0.025 kg/ha) | STEME rating (Stellaria media (STEME) [22]; dose 0.013 kg/ha)
0 (0 - No effect): GLXMA rating (Glycine max (GLXMA) [8]; dose 0.013 kg/ha) | TRZAW rating ([9]; dose 0.013 kg/ha) | TRZAW rating ([9]; dose 0.025 kg/ha) | ORYSA rating (Oryza sativum (ORYSA) [15]; dose 0.013 kg/ha) | ORYSA rating (Oryza sativum (ORYSA) [15]; dose 0.025 kg/ha) | ABUTH rating ([21]; dose 0.013 kg/ha)
7 (7 - Good herbicidal effect): IPOHE rating ([3]; dose 0.03 kg/ha) | ALOMY rating ([5]; dose 0.1 kg/ha) | ALOMY rating ([6]; dose 0.1 kg/ha) | GLXMA rating (Glycine max (GLXMA) [18]; dose 0.1 kg/ha) | ABUTH rating ([19]; dose 0.4 kg/ha) | ABUTH rating ([21]; dose 0.1 kg/ha) | GALAP rating (Galium aparine (GALAP) [24]; dose 0.1 kg/ha)
